Paper PMC2358886, “Evolution of pharmacologic specificity in the pregnane X receptor” (BMC Evolutionary Biology, 2008)
Where two headings read alike, the source gives them in different places.

Experiments:
[1] = molecular target: T1, human PXR (Homo sapiens, UniProt O75469); assay: PXR activation luciferase reporter assay, human PXR in HepG2-NTCP cells; conditions: for hPXR Efficacy: relative to 10 μM rifampicin, assigned an efficacy of 1.0
T1 sequence (O75469 1-434): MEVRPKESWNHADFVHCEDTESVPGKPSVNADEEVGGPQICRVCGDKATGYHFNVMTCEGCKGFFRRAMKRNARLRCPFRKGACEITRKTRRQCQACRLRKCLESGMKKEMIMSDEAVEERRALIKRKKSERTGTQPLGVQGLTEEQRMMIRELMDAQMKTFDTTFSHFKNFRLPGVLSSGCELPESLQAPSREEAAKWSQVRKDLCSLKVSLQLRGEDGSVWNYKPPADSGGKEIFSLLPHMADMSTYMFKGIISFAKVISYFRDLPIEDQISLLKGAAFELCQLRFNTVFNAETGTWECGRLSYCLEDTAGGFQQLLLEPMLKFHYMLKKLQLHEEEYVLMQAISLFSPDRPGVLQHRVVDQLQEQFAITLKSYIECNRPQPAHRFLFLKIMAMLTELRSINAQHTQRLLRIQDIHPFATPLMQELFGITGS

[2] = test system: HepG2 cells; assay: Toxicity assays in HepG2 cells (MTT and alamar blue reduction); conditions: lowest concentration that produced significant toxicity in the HepG2 cells
[3] = molecular target: T2, zebrafish PXR (Danio rerio, UniProt A5WYG8)
T2 sequence (A5WYG8 144-430): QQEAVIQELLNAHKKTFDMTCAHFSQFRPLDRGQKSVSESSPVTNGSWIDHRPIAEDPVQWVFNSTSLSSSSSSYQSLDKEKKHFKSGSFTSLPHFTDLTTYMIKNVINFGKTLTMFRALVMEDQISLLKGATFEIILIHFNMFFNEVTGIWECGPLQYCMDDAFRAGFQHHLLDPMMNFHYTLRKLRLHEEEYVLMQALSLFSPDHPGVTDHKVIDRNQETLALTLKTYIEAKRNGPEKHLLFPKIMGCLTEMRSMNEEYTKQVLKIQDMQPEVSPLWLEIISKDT

[4] = molecular target: T1, human PXR
[5] = test system: HepG2 cells
[6] = -log(EC50), EC50 in molar units, activation of human PXR
[7] = -log(EC50), EC50 in molar units, activation of zebrafish PXR
[8] = relative to 20 μM 5α-androstan-3α-ol, assigned an efficacy of 1.0
[9] = hPXR Activity, -log(EC50), EC50 in molar units, activation of human PXR

Compound: Clc1cnc(Oc2ccc(Oc3ncc(Cl)cc3Cl)cc2)c(Cl)c1 [MI35, TCPOBOP]
- hPXR Activity [1, 6]: 5.25
- hPXR Efficacy [1]: 0.66
- Toxicity [2]: 200 µM
- zfPXR Activity [3, 7]: None

Compound: C[C@H](CCC(=O)O)[C@H]1CC[C@H]2[C@@H]3[C@H](O)C[C@H]4CC(=O)CC[C@]4(C)[C@H]3C[C@H](O)[C@]12C [BI33, 5α-Cholanic acid-7α,12α-diol-3-one]
- hPXR Activity [1, 6]: 4.92
- hPXR Efficacy [1]: 0.26
- Toxicity [2]: None
- zfPXR Activity [3, 7]: None

Compound: C[C@H](O)[C@H]1CC[C@H]2[C@@H]3CC[C@@H]4C[C@H](O[C@@H]5O[C@H](C(=O)O)[C@@H](O)[C@H](O)[C@H]5O)CC[C@]4(C)[C@H]3CC[C@]12C [PR16, 5β-Pregnan-3α,20α-diol-3-glucosiduronate]
- hPXR Activity [1, 6]: 4.26
- hPXR Efficacy [4]: 0.17
- Toxicity [5]: None
- zfPXR Activity [3, 7]: 4.78
- zfPXR Efficacy [3, 8]: 1.42

Compound: C[C@]12CC[C@H]3[C@@H](CCC4=CC(=O)CC[C@@]43C)[C@@H]1CC[C@@H]2C(=O)CO [PR9, 4-Pregnen-21-ol-3,20-dione]
- EC50 ([1]; Human PXR EC50 (concentration class, Figure 2A)): < 10 µM
- EC50 ([1]; hPXR Activity): 2.45 µM
- hPXR Efficacy ([4]; human): 0.3
- Toxicity ([5]; human): 200 µM
- Zebrafish PXR EC50 (concentration class, Figure 2B) [3]: Inactive
- zfPXR Activity [3]: None

Compound: C[C@H](CCCOS(=O)(=O)O)[C@H]1CC[C@H]2[C@@H]3[C@H](O)C[C@H]4C[C@H](O)CC[C@]4(C)[C@H]3C[C@H](O)[C@]12C [BI30, 5α-Cholan-3α,7α,12α-triol-24-sulfate]
- hPXR Activity [1, 6]: 4.55
- hPXR Efficacy [1]: 1.02
- Toxicity [2]: None
- zfPXR Activity [3, 7]: None

Compound: C[C@]12CC[C@@H]3c4ccc(OS(=O)(=O)O)cc4CC[C@H]3[C@@H]1CC[C@@H]2O [ES10, 1,3,5(10)-Estratrien-17β-ol-3-sulfate]
- hPXR Activity [1, 6]: 6.05
- hPXR Efficacy [4]: 0.6
- Toxicity [5]: 200 µM
- zfPXR Activity [3, 7]: None

Compound: CC(=O)[C@H]1CC[C@H]2[C@@H]3CC[C@@H]4C[C@H](O)CC[C@]4(C)[C@H]3CC[C@]12C [PR25, 5β-Pregnan-3α-ol-20-one]
- hPXR Activity [1, 6]: 4.98
- hPXR Efficacy [4]: 0.55
- Toxicity [5]: 100 µM
- zfPXR Activity [3, 7]: 6.64

Compound: C[C@H](CCC(=O)NCCS(=O)(=O)O)[C@H]1CC[C@H]2[C@@H]3CC[C@@H]4C[C@H](OS(=O)(=O)O)CC[C@]4(C)[C@H]3CC[C@]12C [BI44, 5β-Cholanic acid-3α-sulfate N-(2-sulfoethyl)-amide]
- EC50 [1, 9]: 83.2 µM
- hPXR Efficacy ([4]; human, 1 day): 0.55
- Toxicity [5]: None
- zfPXR Activity [3, 7]: None

Compound: C[C@]12CC[C@H](OS(=O)(=O)O)CC1=CC[C@@H]1[C@@H]2CC[C@]2(C)C(=O)CC[C@@H]12 [AN12, 5-Androsten-3β-sulfate-17-one]
- hPXR Activity [1, 6]: 4.32
- hPXR Efficacy [4]: 0.22
- Toxicity [5]: None
- zfPXR Activity [3, 7]: None

Compound: C[C@H](CCC(=O)O)[C@H]1CC[C@H]2[C@@H]3CC[C@@H]4CC(=O)CC[C@]4(C)[C@H]3CC[C@]12C [BI48, 5β-Cholanic acid-3-one]
- hPXR Activity [1, 6]: 5.08
- hPXR Efficacy [1]: 0.42
- Toxicity [2]: None
- zfPXR Activity [3, 7]: None

Compound: CC(O)C1CCC2C3CCC4CC(O)CCC4(C)C3CCC12C (stereo not drawn) [PR1, 5β-Pregnan-3α,20α-diol]
- hPXR Activity [1, 6]: 5.29
- hPXR Efficacy [4]: 0.34
- Toxicity [5]: 100 µM
- zfPXR Activity [3, 7]: None

Compound: C[C@]12CC[C@H]3[C@@H](CCC4=CC(=O)CC[C@@]43C)[C@@H]1CC[C@H]2O[C@@H]1O[C@H](C(=O)O)[C@@H](O)[C@H](O)[C@H]1O [AN16, 4-Androsten-17α-glucosiduronate-3-one]
- hPXR Activity [1, 6]: 4.86
- hPXR Efficacy [1]: 0.69
- Toxicity [2]: None
- zfPXR Activity [3, 7]: None

Compound: C[C@H](CCC(=O)NCC(=O)O)[C@H]1CC[C@H]2[C@@H]3CC[C@@H]4C[C@H](OS(=O)(=O)O)CC[C@]4(C)[C@H]3CC[C@]12C [BI43, 5β-Cholanic acid-3α-sulfate N-(carboxymethyl)-amide]
- hPXR Efficacy [1]: 0.19
- Toxicity [2]: None
- zfPXR Activity [3, 7]: None

Compound: Cc1cc(O)cc2c1O[C@](C)(CCC[C@H](C)CCC[C@H](C)CCCC(C)C)CC2 [MI39, δ-Tocopherol]
- hPXR Activity [1, 6]: 5.14
- hPXR Efficacy [4]: 0.64
- Toxicity [5]: 100 µM
- zfPXR Activity [3, 7]: None

Compound: Cc1cc(O)c(C)c2c1O[C@](C)(CCC[C@H](C)CCC[C@H](C)CCCC(C)C)CC2 [MI38, β-Tocopherol]
- hPXR Activity [1, 6]: 4.85
- hPXR Efficacy [4]: 0.33
- Toxicity [5]: 100 µM
- zfPXR Activity [3, 7]: None

Compound: C[C@]12CC[C@@H](O)C[C@H]1CC[C@@H]1[C@@H]2C(=O)C[C@]2(C)C(=O)CC[C@@H]12 [AN14, 5β-Androstan-3α-ol-11,17-dione]
- hPXR Activity [1, 6]: 4.39
- hPXR Efficacy [1]: 0.15
- Toxicity [2]: None
- zfPXR Activity [3, 7]: 5.01
- zfPXR Efficacy [3, 8]: 0.49

Compound: CCOP(=S)(OCC)Oc1nc(Cl)c(Cl)cc1Cl [MI10, Chlorpyrifos]
- EC50 [1, 9]: 25.7 µM
- hPXR Efficacy ([4]; human): 2.05
- Toxicity [5]: None

Compound: CC(=O)[C@H]1CC[C@H]2[C@@H]3CC[C@H]4C[C@H](O)CC[C@]4(C)[C@H]3CC[C@]12C [PR14, 5α-Pregnan-3α-ol-20-one]
- EC50 [1, 9]: 4.17 µM
- hPXR Efficacy ([4]; human): 0.46
- Toxicity [5]: None

Compound: C[C@H](O)[C@H]1CC[C@H]2[C@@H]3CC[C@H]4C[C@H](O)CC[C@]4(C)[C@H]3CC[C@]12C [PR15, 5α-Pregnan-3α,20α-diol]
- hPXR Activity [1, 6]: 4.28
- hPXR Efficacy [4]: 0.16
- Toxicity [5]: None
- zfPXR Efficacy [3]: 0.29
- zfPXR Activity [3, 7]: 4.58

Compound: C[C@]12CC[C@@H](O)C[C@@H]1CC[C@@H]1[C@@H]2[C@@H](O)C[C@]2(C)[C@@H](C(=O)CO)CC[C@@H]12 [PR20, 5α-Pregnan-3α,11β,21-triol-20-one]
- hPXR Activity [1, 6]: 4.90
- hPXR Efficacy [4]: 0.26
- Toxicity [5]: None
- zfPXR Activity [3, 7]: None

Compound: C[C@]12CC[C@H](O)CC1=CC[C@@H]1[C@@H]2CC[C@]2(C)C(=O)CC[C@@H]12 [AN9, 5-Androsten-3β-ol-17-one]
- EC50 [4]: 11 to 50 µM
- hPXR Activity [4]: 4.49
- hPXR Efficacy [4]: 0.52
- Toxicity [5]: None
- EC50 [3]: 11 to 50 µM
- zfPXR Activity [3]: 4.89
- zfPXR Efficacy [3]: 0.35

Compound: Vitamin K2 [MI45]
- hPXR Activity [1, 6]: 5.04
- hPXR Efficacy [4]: 0.80
- Toxicity [5]: 100 µM
- zfPXR Activity [3, 7]: None

Compound: 4-Pregnen-20β-ol-3,20-dione-17α-sulfate [PR22]
- hPXR Activity [4]: 5.73
- Toxicity [5]: None
- zfPXR Activity [3, 7]: None

Compound: C[C@@H](O)[C@@]1(O)CC[C@H]2[C@@H]3CCC4=CC(=O)CC[C@]4(C)[C@H]3CC[C@@]21C [PR21, 4-Pregnen-17α,20β-diol-3,20-dione]
- hPXR Activity [4]: None
- Toxicity [5]: 200 µM
- zfPXR Activity [3, 7]: None

Compound: C[C@]12CC[C@H]3[C@@H](CCC4=CC(=O)CC[C@@]43C)[C@@H]1CC[C@H]2OS(=O)(=O)O [AN17, 4-Androsten-17α-sulfate-3-one]
- hPXR Activity [1, 6]: 5.47
- hPXR Efficacy [4]: 0.67
- Toxicity [5]: None
- zfPXR Activity [3, 7]: None
